Experimental data published in paper PMC9954146, “Anti-Leukaemic Activity of Rilpivirine Is Mediated by Aurora A Kinase Inhibition” (Cancers, 2023).

Key:
Experiment in all cases: Kinase panel
Type in all cases: biochemical
Settings in all cases: read-out: % Residual Activity
ALK6(h) = biological target: T1, ALK6(h) (Homo sapiens, UniProt O00238)
T1 construct: purchased Eurofins (KinaseProfiler)
Summary of the method: (§1)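 Steps: profile rilpivirine against a broad kinase panel; determine IC50 by radioactive assay using ATP at the kinase-specific Km; convert IC50 to Ki by the Cheng–Prusoff relationship.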

Abl (Q252H) (h) = biological target: T2, Abl (Q252H) (h) (Homo sapiens, UniProt P00519, Q252H)
T2 construct: purchased Eurofins (KinaseProfiler)
Summary of the method: as §1

Abl(h) = biological target: T3, Abl(h) (Homo sapiens, UniProt P00519)
T3 construct: purchased Eurofins (KinaseProfiler)
Summary of the method: as §1

Arg(h) = biological target: T4, Arg(h) (Homo sapiens, UniProt P42684)
T4 construct: purchased Eurofins (KinaseProfiler)
T4 sequence (P42684 whole entry): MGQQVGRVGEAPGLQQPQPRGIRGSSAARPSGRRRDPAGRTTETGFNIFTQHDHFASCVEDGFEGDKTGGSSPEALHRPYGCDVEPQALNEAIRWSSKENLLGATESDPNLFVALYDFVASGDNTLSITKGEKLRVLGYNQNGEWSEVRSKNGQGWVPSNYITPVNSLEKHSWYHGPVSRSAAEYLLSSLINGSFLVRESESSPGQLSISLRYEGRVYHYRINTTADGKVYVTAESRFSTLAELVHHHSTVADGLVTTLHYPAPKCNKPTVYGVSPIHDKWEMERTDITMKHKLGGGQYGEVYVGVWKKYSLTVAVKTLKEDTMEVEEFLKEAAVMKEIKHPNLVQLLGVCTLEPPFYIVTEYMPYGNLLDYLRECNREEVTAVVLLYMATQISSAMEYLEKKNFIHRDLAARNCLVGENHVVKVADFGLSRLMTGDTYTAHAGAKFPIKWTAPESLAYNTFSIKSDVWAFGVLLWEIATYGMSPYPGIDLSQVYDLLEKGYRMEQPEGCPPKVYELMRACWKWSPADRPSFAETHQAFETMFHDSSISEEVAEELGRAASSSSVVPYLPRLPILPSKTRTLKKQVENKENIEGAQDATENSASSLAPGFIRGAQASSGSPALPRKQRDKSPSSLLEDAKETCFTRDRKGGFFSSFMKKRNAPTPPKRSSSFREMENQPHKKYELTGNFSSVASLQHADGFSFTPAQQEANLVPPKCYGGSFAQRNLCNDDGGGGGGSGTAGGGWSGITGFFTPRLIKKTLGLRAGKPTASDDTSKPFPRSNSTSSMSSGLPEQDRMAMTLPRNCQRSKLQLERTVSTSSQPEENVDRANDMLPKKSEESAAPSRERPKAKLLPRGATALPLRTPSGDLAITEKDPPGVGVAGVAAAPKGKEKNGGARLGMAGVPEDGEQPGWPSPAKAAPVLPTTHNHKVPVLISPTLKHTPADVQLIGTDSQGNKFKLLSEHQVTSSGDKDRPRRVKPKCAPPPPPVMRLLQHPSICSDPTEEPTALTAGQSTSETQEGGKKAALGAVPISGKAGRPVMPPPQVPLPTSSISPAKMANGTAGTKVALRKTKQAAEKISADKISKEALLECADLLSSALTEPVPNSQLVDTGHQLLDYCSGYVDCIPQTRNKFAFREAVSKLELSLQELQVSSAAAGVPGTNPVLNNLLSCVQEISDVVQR
Summary of the method: as §1

Arg(m) = biological target: T5, Arg(m) (Mus musculus, UniProt Q4JIM5)
T5 construct: purchased Eurofins (KinaseProfiler)
Summary of the method: as §1

Aurora-A(h) = biological target: T6, Aurora-A(h) (Homo sapiens, UniProt O14965)
T6 construct: purchased Eurofins (KinaseProfiler)
Summary of the method: as §1

Aurora-B(h) = biological target: T7, Aurora-B(h) (Homo sapiens, UniProt Q96GD4)
T7 construct: purchased Eurofins (KinaseProfiler)
Summary of the method: as §1

Aurora-C(h) = biological target: T8, Aurora-C(h) (Homo sapiens, UniProt Q9UQB9)
T8 construct: purchased Eurofins (KinaseProfiler)
Summary of the method: as §1

BTK(h) = biological target: T9, BTK(h) (Homo sapiens, UniProt Q06187)
T9 construct: purchased Eurofins (KinaseProfiler)
Summary of the method: as §1

CDK18/cyclinY(h) = biological target: T10, CDK18/cyclinY(h) (Homo sapiens, UniProt Q07002)
T10 construct: purchased Eurofins (KinaseProfiler)
Summary of the method: as §1

CDKL1(h) = biological target: T11, CDKL1(h) (Homo sapiens, UniProt Q00532)
T11 construct: purchased Eurofins (KinaseProfiler)
T11 sequence (Q00532 whole entry): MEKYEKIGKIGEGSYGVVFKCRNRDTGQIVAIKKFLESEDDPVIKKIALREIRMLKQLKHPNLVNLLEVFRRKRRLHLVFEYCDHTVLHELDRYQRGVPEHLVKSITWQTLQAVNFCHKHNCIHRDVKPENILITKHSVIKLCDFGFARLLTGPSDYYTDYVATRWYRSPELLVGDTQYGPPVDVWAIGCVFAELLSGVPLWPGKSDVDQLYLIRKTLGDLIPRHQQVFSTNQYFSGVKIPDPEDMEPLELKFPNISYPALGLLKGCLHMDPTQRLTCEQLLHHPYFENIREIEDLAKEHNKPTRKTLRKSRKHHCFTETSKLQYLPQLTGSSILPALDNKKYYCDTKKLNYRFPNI
Summary of the method: as §1

CHK2(R145W)(h) = biological target: T12, CHK2(R145W)(h) (Homo sapiens, UniProt O96017, R145W)
T12 construct: purchased Eurofins (KinaseProfiler)
T12 sequence (O96017 whole entry R145W): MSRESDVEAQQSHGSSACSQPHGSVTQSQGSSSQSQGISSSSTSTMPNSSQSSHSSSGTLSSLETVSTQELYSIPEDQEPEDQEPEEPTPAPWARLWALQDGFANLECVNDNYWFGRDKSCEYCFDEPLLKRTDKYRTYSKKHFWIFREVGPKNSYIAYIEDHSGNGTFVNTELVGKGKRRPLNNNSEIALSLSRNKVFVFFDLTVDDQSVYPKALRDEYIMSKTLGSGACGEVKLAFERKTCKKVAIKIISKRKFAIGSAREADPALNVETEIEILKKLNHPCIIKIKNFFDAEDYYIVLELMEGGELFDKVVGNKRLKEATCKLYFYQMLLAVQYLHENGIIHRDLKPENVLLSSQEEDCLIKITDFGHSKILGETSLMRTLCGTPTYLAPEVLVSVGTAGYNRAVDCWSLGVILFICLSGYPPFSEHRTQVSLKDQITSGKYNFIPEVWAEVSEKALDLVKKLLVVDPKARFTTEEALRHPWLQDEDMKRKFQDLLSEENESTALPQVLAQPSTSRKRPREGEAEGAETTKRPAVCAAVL
Summary of the method: as §1

FGFR2(N549H)(h) = biological target: T13, FGFR2(N549H)(h) (Homo sapiens, UniProt P21802, N549H)
T13 construct: purchased Eurofins (KinaseProfiler)
Summary of the method: as §1

Fgr(h) = biological target: T14, Fgr(h) (Homo sapiens, UniProt P09769)
T14 construct: purchased Eurofins (KinaseProfiler)
Summary of the method: as §1

GRK7(h) = biological target: T15, GRK7(h) (Homo sapiens, UniProt Q8WTQ7)
T15 construct: purchased Eurofins (KinaseProfiler)
Summary of the method: as §1

HIPK4(h) = biological target: T16, HIPK4(h) (Homo sapiens, UniProt Q8NE63)
T16 construct: purchased Eurofins (KinaseProfiler)
Summary of the method: as §1

JAK1(h) = biological target: T17, JAK1(h) (Homo sapiens, UniProt P23458)
T17 construct: purchased Eurofins (KinaseProfiler)
Summary of the method: as §1

JNK3(h) = biological target: T18, JNK3(h) (Homo sapiens, UniProt P53779)
T18 construct: purchased Eurofins (KinaseProfiler)
Summary of the method: as §1

LATS2(h) = biological target: T19, LATS2(h) (Homo sapiens, UniProt Q9NRM7)
T19 construct: purchased Eurofins (KinaseProfiler)
Summary of the method: as §1

MAP4K4(h) = biological target: T20, MAP4K4(h) (Homo sapiens, UniProt O95819)
T20 construct: purchased Eurofins (KinaseProfiler)
Summary of the method: as §1

MINK(h) = biological target: T21, MINK(h) (Homo sapiens, UniProt Q8N4C8)
T21 construct: purchased Eurofins (KinaseProfiler)
T21 sequence (Q8N4C8 whole entry): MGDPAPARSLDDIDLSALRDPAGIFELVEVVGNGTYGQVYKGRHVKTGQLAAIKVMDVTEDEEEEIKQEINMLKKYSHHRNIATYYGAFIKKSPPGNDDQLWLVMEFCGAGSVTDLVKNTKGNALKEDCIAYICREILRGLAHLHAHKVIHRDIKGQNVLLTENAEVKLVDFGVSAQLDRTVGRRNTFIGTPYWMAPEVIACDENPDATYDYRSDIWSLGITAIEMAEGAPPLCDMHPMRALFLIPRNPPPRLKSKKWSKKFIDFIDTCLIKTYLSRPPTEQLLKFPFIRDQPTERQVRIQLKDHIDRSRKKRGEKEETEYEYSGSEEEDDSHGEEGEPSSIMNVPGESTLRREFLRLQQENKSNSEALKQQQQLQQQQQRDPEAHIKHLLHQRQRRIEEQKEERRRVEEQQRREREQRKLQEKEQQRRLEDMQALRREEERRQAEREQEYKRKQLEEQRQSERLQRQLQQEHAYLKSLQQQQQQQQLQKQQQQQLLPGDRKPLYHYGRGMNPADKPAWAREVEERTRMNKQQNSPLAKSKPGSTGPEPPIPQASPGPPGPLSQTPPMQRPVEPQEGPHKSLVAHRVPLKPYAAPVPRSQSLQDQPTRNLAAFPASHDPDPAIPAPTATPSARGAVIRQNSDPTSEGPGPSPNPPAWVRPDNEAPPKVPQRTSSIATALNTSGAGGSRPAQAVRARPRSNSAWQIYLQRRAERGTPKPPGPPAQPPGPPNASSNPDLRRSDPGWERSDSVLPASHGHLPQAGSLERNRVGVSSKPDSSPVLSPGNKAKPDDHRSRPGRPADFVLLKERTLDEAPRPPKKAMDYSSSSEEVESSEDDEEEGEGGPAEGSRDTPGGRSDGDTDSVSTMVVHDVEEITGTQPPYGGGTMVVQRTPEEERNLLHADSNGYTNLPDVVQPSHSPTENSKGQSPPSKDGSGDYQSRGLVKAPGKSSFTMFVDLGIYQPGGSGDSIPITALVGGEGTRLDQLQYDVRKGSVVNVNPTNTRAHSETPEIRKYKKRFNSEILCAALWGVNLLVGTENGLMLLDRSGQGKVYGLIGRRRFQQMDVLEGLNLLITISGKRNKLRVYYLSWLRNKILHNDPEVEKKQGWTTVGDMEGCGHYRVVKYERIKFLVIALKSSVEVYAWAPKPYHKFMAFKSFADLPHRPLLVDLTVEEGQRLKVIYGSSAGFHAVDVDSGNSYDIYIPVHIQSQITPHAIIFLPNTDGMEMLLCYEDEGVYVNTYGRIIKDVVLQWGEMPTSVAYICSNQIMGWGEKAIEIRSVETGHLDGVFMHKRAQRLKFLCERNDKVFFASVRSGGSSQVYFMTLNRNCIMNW
Summary of the method: as §1

MRCKβ(h) = biological target: T22, MRCKβ(h) (Homo sapiens, UniProt Q9Y5S2)
T22 construct: purchased Eurofins (KinaseProfiler)
Summary of the method: as §1

Met(D1246N)(h) = biological target: T23, Met(D1246N)(h) (Homo sapiens, UniProt P08581, D1228N)
T23 construct: purchased Eurofins (KinaseProfiler)
Summary of the method: as §1

Met(Y1248D)(h) = biological target: T24, Met(Y1248D)(h) (Homo sapiens, UniProt P08581, Y1230D)
T24 construct: purchased Eurofins (KinaseProfiler)
Summary of the method: as §1

OSR1(h) = biological target: T25, OSR1(h) (Homo sapiens, UniProt O95747)
T25 construct: purchased Eurofins (KinaseProfiler)
Summary of the method: as §1

PEK(h) = biological target: T26, PEK(h) (Homo sapiens, UniProt Q9NZJ5)
T26 construct: purchased Eurofins (KinaseProfiler)
Summary of the method: as §1

[1] = biological target: PI3 Kinase (p110a(E542K)/p85a)(m) (Mus musculus, UniProt P42337, E542K)
Summary of the method: as §1

[2] = biological target: T27, PI3 Kinase (p110a/p85a)(m) (Mus musculus, UniProt P42337)
T27 construct: purchased Eurofins (KinaseProfiler)
Summary of the method: as §1

PKCε(h) = biological target: T28, PKCε(h) (Homo sapiens, UniProt Q02156)
T28 construct: purchased Eurofins (KinaseProfiler)
T28 sequence (Q02156 whole entry): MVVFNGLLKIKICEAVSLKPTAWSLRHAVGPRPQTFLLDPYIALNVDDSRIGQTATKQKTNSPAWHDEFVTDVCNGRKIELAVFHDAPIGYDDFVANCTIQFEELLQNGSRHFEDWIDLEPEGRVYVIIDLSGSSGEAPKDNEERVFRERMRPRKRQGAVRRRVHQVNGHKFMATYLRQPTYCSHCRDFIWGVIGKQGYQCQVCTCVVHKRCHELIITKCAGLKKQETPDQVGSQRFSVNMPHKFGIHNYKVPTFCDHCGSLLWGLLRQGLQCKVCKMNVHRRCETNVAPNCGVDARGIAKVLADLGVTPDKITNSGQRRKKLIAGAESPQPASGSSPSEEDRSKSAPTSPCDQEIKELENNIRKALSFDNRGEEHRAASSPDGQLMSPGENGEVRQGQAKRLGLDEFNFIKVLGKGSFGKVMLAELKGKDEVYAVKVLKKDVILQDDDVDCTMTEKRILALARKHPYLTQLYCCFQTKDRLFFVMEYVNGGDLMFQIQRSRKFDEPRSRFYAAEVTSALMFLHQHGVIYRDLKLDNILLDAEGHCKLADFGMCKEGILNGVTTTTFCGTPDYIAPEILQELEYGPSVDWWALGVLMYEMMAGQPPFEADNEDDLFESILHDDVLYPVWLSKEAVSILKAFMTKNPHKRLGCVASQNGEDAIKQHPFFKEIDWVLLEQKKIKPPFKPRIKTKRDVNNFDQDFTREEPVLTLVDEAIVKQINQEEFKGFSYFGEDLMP
Summary of the method: as §1

PRAK(h) = biological target: T29, PRAK(h) (Homo sapiens, UniProt Q8IW41)
T29 construct: purchased Eurofins (KinaseProfiler)
Summary of the method: as §1

Ron(h) = biological target: T30, Ron(h) (Homo sapiens, UniProt Q04912)
T30 construct: purchased Eurofins (KinaseProfiler)
Summary of the method: as §1

Rsk3(h) = biological target: T31, Rsk3(h) (Homo sapiens, UniProt Q15349)
T31 construct: purchased Eurofins (KinaseProfiler)
Summary of the method: as §1

SGK2(h) = biological target: T32, SGK2(h) (Homo sapiens, UniProt Q9HBY8)
T32 construct: purchased Eurofins (KinaseProfiler)
Summary of the method: as §1

SRMS(h) = biological target: T33, SRMS(h) (Homo sapiens, UniProt Q9H3Y6)
T33 construct: purchased Eurofins (KinaseProfiler)
Summary of the method: as §1

STK16(h) = biological target: T34, STK16(h) (Homo sapiens, UniProt O75716)
T34 construct: purchased Eurofins (KinaseProfiler)
T34 sequence (O75716 whole entry): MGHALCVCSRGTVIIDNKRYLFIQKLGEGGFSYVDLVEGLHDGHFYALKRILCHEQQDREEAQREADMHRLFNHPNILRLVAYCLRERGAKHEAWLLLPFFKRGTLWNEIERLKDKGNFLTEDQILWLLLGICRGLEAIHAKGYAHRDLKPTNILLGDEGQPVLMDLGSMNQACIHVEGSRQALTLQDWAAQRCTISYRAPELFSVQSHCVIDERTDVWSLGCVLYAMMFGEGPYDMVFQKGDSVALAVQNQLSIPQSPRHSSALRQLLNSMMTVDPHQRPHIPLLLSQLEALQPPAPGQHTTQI
Summary of the method: as §1

TLK2(h) = biological target: T35, TLK2(h) (Homo sapiens, UniProt Q86UE8)
T35 construct: purchased Eurofins (KinaseProfiler)
Summary of the method: as §1

Wee1B(h) = biological target: T36, Wee1B(h) (Homo sapiens, UniProt P0C1S8)
T36 construct: purchased Eurofins (KinaseProfiler)
Summary of the method: as §1

ZIPK(h) = biological target: T37, ZIPK(h) (Homo sapiens, UniProt O43293)
T37 construct: purchased Eurofins (KinaseProfiler)
T37 sequence (O43293 whole entry): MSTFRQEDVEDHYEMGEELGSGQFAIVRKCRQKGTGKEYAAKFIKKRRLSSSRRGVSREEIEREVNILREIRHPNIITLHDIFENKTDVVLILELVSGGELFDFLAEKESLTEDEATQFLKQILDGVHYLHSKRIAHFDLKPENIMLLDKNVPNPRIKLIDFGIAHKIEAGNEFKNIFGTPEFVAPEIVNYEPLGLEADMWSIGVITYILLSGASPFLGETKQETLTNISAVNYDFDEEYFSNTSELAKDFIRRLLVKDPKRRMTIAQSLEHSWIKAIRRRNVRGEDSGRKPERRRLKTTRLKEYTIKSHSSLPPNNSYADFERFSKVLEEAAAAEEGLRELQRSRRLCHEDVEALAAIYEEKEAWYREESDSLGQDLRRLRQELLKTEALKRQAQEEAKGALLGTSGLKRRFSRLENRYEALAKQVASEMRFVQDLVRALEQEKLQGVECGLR
Summary of the method: as §1

**Q.** Which remaining activity at 1 µM (ALK6(h)) does the source give for Cc1cc(/C=C/C#N)cc(C)c1Nc1ccnc(Nc2ccc(C#N)cc2)n1 [rilpivirine, (E)-4-((4-((4-(2-cyanoethenyl)-2,6-dimethylphenyl)amino)pyrimidin-2-yl)amino)benzonitrile] here?
**A.** 83%

**Q.** And the remaining activity at 1 µM (Abl (Q252H) (h))?
**A.** 94%

**Q.** And the remaining activity at 1 µM (Abl(h))?
**A.** 86%

**Q.** What about the remaining activity at 1 µM (Arg(h)) of the same compound?
**A.** 70%

**Q.** And the remaining activity at 1 µM (Arg(m))?
**A.** 48%

**Q.** And the remaining activity at 1 µM (Aurora-A(h))?
**A.** 14%

**Q.** What about the remaining activity at 1 µM (Aurora-B(h)) of the same compound?
**A.** 85%

**Q.** And the remaining activity at 1 µM (Aurora-C(h))?
**A.** 93%

**Q.** And the remaining activity at 1 µM (BTK(h))?
**A.** 90%

**Q.** And the remaining activity at 1 µM (CDK18/cyclinY(h))?
**A.** 93%

**Q.** What about the remaining activity at 1 µM (CDKL1(h)) of the same compound?
**A.** 75%

**Q.** And the remaining activity at 1 µM (CHK2(R145W)(h))?
**A.** 76%

**Q.** And the remaining activity at 1 µM (FGFR2(N549H)(h))?
**A.** 91%

**Q.** And the remaining activity at 1 µM (Fgr(h))?
**A.** 37%

**Q.** What about the remaining activity at 1 µM (GRK7(h)) of the same compound?
**A.** 70%

**Q.** What about the remaining activity at 1 µM (HIPK4(h)) of the same compound?
**A.** 87%

**Q.** What about the remaining activity at 1 µM (JAK1(h)) of the same compound?
**A.** 79%

**Q.** What about the remaining activity at 1 µM (JNK3(h)) of the same compound?
**A.** 100%

**Q.** What about the remaining activity at 1 µM (LATS2(h)) of the same compound?
**A.** 80%

**Q.** And the remaining activity at 1 µM (MAP4K4(h))?
**A.** 79%

**Q.** What about the remaining activity at 1 µM (MINK(h)) of the same compound?
**A.** 80%

**Q.** What about the remaining activity at 1 µM (MRCKβ(h)) of the same compound?
**A.** 87%

**Q.** What about the remaining activity at 1 µM (Met(D1246N)(h)) of the same compound?
**A.** 102%

**Q.** What about the remaining activity at 1 µM (Met(Y1248D)(h)) of the same compound?
**A.** 100%

**Q.** And the remaining activity at 1 µM (OSR1(h))?
**A.** 102%

**Q.** And the remaining activity at 1 µM (PEK(h))?
**A.** 82%

**Q.** What about the remaining activity at 1 µM [1] of the same compound?
**A.** 101%

**Q.** What about the remaining activity at 1 µM [2] of the same compound?
**A.** 100%

**Q.** And the remaining activity at 1 µM (PKCε(h))?
**A.** 89%

**Q.** And the remaining activity at 1 µM (PRAK(h))?
**A.** 100%

**Q.** What about the remaining activity at 1 µM (Ron(h)) of the same compound?
**A.** 85%

**Q.** What about the remaining activity at 1 µM (Rsk3(h)) of the same compound?
**A.** 86%

**Q.** And the remaining activity at 1 µM (SGK2(h))?
**A.** 97%

**Q.** What about the remaining activity at 1 µM (SRMS(h)) of the same compound?
**A.** 55%

**Q.** What about the remaining activity at 1 µM (STK16(h)) of the same compound?
**A.** 58%

**Q.** What about the remaining activity at 1 µM (TLK2(h)) of the same compound?
**A.** 115%

**Q.** What about the remaining activity at 1 µM (Wee1B(h)) of the same compound?
**A.** 94%

**Q.** What about the remaining activity at 1 µM (ZIPK(h)) of the same compound?
**A.** 85%
